Laboratory results: PMC5481443, “High-throughput Screening of Small Molecule Inhibitors of the Streptococcus Quorum-sensing Signal Pathway” (Scientific Reports, 2017)

Legend:
[1] = molecular target: MuPEP1 (S. mutans PEP) (Streptococcus mutans, UniProt Q8DW05); test: MuPEP1 peptidase inhibition assay with fluorogenic substrate tCComC-AFC; format: biochemical
Experimental: This region of ComC is necessary and sufficient for the interaction with PEP[17]. […] Thus, this synthetic peptide was used as a functionally relevant substrate. Assays were performed in black flat-bottom 384-well plates (Greinar, 784900) under ambient conditions. All compounds dissolved in DMSO were predispensed on the plate (100 nL/well) with the final concentration of 20 μM, and then aliquots of 5 μL of 0.5 μM MuPEP1 (final concentration) in 50 mM Tris-HCl, 150 mM ammonium sulfate, and 0.02% Triton X-100 were dispensed to each well by using a Multidrop Combi dispenser (Thermo Fisher Scientific, Vantaa, Finland). […] These reaction mixtures contained DMSO at a 3% final concentration. Each 384-well plate contained 16 negative control wells (lacking MuPEP1) and 16 positive control wells (100 nL of DMSO replacing 100 nL of compound in DMSO). After 3-h incubation, the fluorescence intensity of the released AFC was measured by using a microplate reader, PHERAstar (BMG Labtech, Offenburg, Germany), with excitation at 380 nm and emission at 490 nm.
Fifteen microliters of 3.3 mM of phosphoric acid was added to 8 μL of the reaction mixtures from the screening. […] The fluorescence was detected by using excitation at 360 nm and emission at 470 nm.
Dose-dependent inhibitory activities of compounds against MuPEP1 were examined in quadruplicate. […]

[2] = system: S. mutans biofilm formation; test: Biofilm formation assay (crystal violet staining; tilted tube culture); format: cell-based, S. mutans strain UA159
Experimental: After 18 h of standing incubation at 37 °C in 5% CO2 under anaerobic condition in an AnaeroPack system (Mitsubishi Gas Chemical, Tokyo, Japan), the cultured medium was removed, and adherent bacteria were stained with 200 μL of 0.005% crystal violet for 30 min. […] The dye was extracted into 200 μL of 60% ethanol, and the biofilm mass was estimated by using a microplate reader (Bio-Rad, Model 680XR) (Bio-Rad, Hercules, CA) to measure the absorbance at 595 nm. […]

[3] = system: S. mutans; test: Bacterial growth / viable cell count; format: cell-based, S. mutans strain UA159; conditions: 25 μM compound, tube culture
Experimental: […] After 18 h of standing incubation at 37 °C in 5% CO2 under anaerobic condition in an AnaeroPack system (Mitsubishi Gas Chemical, Tokyo, Japan), the cultured medium was removed, and adherent bacteria were stained with 200 μL of 0.005% crystal violet for 30 min. The wells were washed twice with 300 μL of distilled water and then air dried. The dye was extracted into 200 μL of 60% ethanol, and the biofilm mass was estimated by using a microplate reader (Bio-Rad, Model 680XR) (Bio-Rad, Hercules, CA) to measure the absorbance at 595 nm. The bacterial growth was determined by measuring the turbidity (absorbance at 595 nm) of parallel wells.
For the count of viable cells shown in Fig. 2B, part of the culture was serially diluted and spread onto the BHI plate, and the plates were incubated overnight at 37 °C in 5% CO2 under anaerobic condition.

[4] = system: S. mutans competence development; test: Transformation assay (competence development); format: cell-based; conditions: 10 μM compound
Experimental: Four microliters of the overnight culture of S. mutans in BHI medium was inoculated to 0.4 mL of CDM in the absence or presence of 10 µM Compound 1. After 7.5 h incubation at 37 °C in 5% CO2 under anaerobic condition in the AnaeroPack system, 1 μg of plasmid pSET2 was added to the culture. After additional 3-h growth, the cultures were chilled on ice, and serial dilutions of the cultures were plated onto BHI agar plates (for enumeration of total CFU) and onto BHI agar plates containing 1 mg/mL spectinomycin (for enumeration of transformants). Transformation efficiency was determined after 24–48 h incubation at 37 °C in 5% CO2 under anaerobic condition.

[5] = system: nlmA and nlmC gene expression of S. mutans; test: Real-time quantitative RT-PCR of bacteriocin genes; format: cell-based; conditions: 25 μM compound
Experimental: Six microliters of the overnight culture of S. mutans in BHI medium was inoculated into 0.4 mL of CDM. After 17 h of incubation at 37 °C in 5% CO2 under anaerobic condition in an AnaeroPack system, cells were collected by centrifugation and treated with labiase (Cosmo Bio, Tokyo, Japan), and total RNA was extracted and purified by using a PureLink™ RNA Mini kit (Ambion, Austin, TX). Purified RNA was reverse transcribed to cDNA by using SuperScript® VILO™ cDNA Synthesis kit. Quantitative real-time PCR was performed by using a Power SYBR® Green PCR Master Mix (Applied Biosystems, Foster City, CA) on a StepOnePlus Real–Time PCR system (Applied Biosystems). The gene expression levels were calculated by using the ΔΔ threshold cycle (ΔΔC T) method. The 16S rRNA gene of S. mutans was used as the housekeeping reference. The oligonucleotides to amplify each gene were as follows: 5′-[…]-3′ and 5′-[…]-3′ for 16S rRNA, 5′-[…]-3′ and 5′-[…]-3′ for nlmA (SMU. 150), and 5′-[…]-3′ and 5′-[…]-3′ for nlmC (SMU. 1914C). All experiments using commercially available kits were performed according to the manufacturer’s instructions.

[6] = molecular target: MuPEP1 (Streptococcus mutans, UniProt Q8DW05); test: Kinetic analysis of MuPEP1 peptidase activity
Experimental: (§1) The PEP activity was assayed in a 110-μL reaction mixture containing 50 mM Tris-HCl, 150 mM ammonium sulfate, 0.02% Triton X-100, and various concentrations of the substrate. The reaction was started by adding the PEP solution to a final concentration of 0.25–2.0 μM. The reaction was performed at 25 °C, 50 μL of the reaction mixture was transferred to a white 96-well microtiter plate (Thermo Scientific 236105), and the fluorescence intensity was immediately measured by using a Promega GloMax®-Multi plus Detection System (Promega, Madison, WI) with excitation at 405 nm and emission at 495–505 nm.
(§2) Supplementary Figure S1: v/[E] versus substrate concentration plots for the PEP […]
(§3) The data were fitted with a saturation curve with the
(§4) Tris-HCl, 150 mM ammonium sulfate, and Triton X-100, pH 7.0, at 25 °C. The concentrations of Triton X-100 were 0.01% for MuPEP1 and 0.02% for S. pneumoniae PEP. The concentrations of PEP or the peptidase domain of BlpA were […]
(1 picture or pasted object on this page, not shown here)

[7] = molecular target: T1, S. pneumoniae PEP (Streptococcus pneumoniae serotype 4, UniProt Q03727); test: S. pneumoniae PEP peptidase assay with tCComC-AFC; format: biochemical
T1 construct: His-tag; made in house; host or cells: E. coli BL21 (DE3) pLysS
Experimental: as §1, with “nm. […]” for “nm.”
as §4
(§5) domain of S. pneumoniae BlpA with Compound 1. […]
(§6) was digested with 0.5 μM PEP or the peptidase domain of BlpA in the presence of […]

[8] = molecular target: S. oralis PEP (Streptococcus oralis, UniProt A0A1X1IJV1); test: S. oralis PEP peptidase assay with tCComC-AFC
Experimental: as §1
Supplementary Figure S1: v/[E] versus substrate concentration plots for the PEP
as §3
Tris-HCl, 150 mM ammonium sulfate, and Triton X-100, pH 7.0, at 25 °C. The
concentrations of Triton X-100 were 0.01% for MuPEP1 and 0.02% for S.
pneumoniae PEP. […]

[9] = molecular target: peptidase domain of S. pneumoniae BlpA (Streptococcus pneumoniae, UniProt G3ECC8); test: BlpA peptidase domain assay with tCComC-AFC
Experimental: as §1, §2, §3, §4
(1 picture or pasted object on this page, not shown here) […]
as §5, §6

[10] = system: CC(C)C[C@H](NC(=O)[C@H](CCC(=O)O)NC(=O)[C@H](CCCCN)NC(=O)[C@H](CCC(=O)O)NC(=O)[C@H](CC(N)=O)NC(=O)[C@H](CC(C)C)NC(=O)[C@@H](NC(=O)[C@@H]1CCCN1C(=O)[C@H](Cc1ccccc1)NC(=O)[C@H](CCC(N)=O)NC(=O)[C@H](C)N)C(C)C)C(=O)N[C@@H](CCCCN)C(=O)N[C@@H](CCC(=O)O)C(=O)N[C@H](C(=O)N[C@@H](CC(C)C)C(=O)NCC(=O)NCC(=O)Nc1ccc2c(C(F)(F)F)cc(=O)oc2c1)C(C)C; test: purified protein, by the assay type
[11] = other: MuPEP1, non-competitive inhibition model fit, Fig. 2E, pH 7.0, 25.0 °C
[12] = other: saturation curve, pH 7.0, 25 °C, Fig. S1

Sequence of MuPEP1 (Q8DW05 entry or part of it): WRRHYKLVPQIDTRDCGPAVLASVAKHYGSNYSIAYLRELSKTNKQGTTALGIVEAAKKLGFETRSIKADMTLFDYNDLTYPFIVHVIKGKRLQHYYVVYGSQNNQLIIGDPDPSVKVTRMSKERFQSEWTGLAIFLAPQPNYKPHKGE
Sequence of peptidase domain of S. pneumoniae BlpA (G3ECC8 entry or part of it): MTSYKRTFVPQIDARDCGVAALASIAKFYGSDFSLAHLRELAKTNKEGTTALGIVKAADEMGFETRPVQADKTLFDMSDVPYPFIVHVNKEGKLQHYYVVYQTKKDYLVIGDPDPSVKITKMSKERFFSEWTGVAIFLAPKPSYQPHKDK
Sequence of S. oralis PEP (A0A1X1IJV1 entry or part of it): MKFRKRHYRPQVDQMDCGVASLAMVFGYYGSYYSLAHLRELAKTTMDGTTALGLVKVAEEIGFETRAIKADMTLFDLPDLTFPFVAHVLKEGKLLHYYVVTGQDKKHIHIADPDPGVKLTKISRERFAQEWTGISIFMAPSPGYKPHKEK
Sequence of MuPEP1 (S. mutans PEP) (Q8DW05 entry or part of it): as the sequence (Q8DW05 entry or part of it) above
T1 sequence (Q03727 11-138): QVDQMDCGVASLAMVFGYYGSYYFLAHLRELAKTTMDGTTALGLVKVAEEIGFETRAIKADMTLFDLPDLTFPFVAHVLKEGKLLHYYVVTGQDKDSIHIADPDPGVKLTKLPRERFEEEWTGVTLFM

Molecule: CCCNC(=O)OCC1CC2CCN1CC2C#Cc1ccccc1 (centres unmarked) [Compound 1]
- IC50 [1]: 38 µM
- Biofilm in standing culture in tilted round-bottom culture tubes ([2]; 25 μM compound, overnight standing culture): easily detached and dispersed after gentle swirling
- EC50 ([2]; Streptococcus mutans, S. mutans, crystal violet staining, 96-well plate, 18 h, read-out: EC50 of suppression of biofilm formation): 5 µM
- Antimicrobial activity against S. mutans [3]: did not show antimicrobial activity
- Transformation efficiency relative to absence of compound [4]: 35%
- Relative gene expression level of nlmA [5]: 18%
- Relative gene expression level of nlmC [5]: 23%
- Ki [6]: 38 µM
- Inhibition mechanism ([6]; Vmax decreased, Km unaffected): non-competitively inhibited
- IC50 [7]: 29 µM
- IC50 [8]: 25 µM
- IC50 [9]: 16 µM

Molecule: MuPEP1 (Streptococcus mutans UA159)
- Km [10, 11]: 43 µM
- kcat [10, 11]: 0.00333 s⁻¹
- Km [10, 12]: 46 µM
- kcat [10, 12]: 0.00317 s⁻¹

Molecule: S. oralis PEP (Streptococcus oralis subsp. oralis)
- Km [10, 12]: 8.2 µM
- kcat [10, 12]: 0.00123 s⁻¹

Molecule: peptidase domain of S. pneumoniae BlpA (Streptococcus pneumoniae)
- Km [10, 12]: 18 µM
- kcat [10, 12]: 0.011 s⁻¹
